Target: T1, α1 glycine receptor (GlyR) (Mus musculus, UniProt Q64018, K421A/K422A)
T1 sequence (Q64018 29-457 K421A/K422A): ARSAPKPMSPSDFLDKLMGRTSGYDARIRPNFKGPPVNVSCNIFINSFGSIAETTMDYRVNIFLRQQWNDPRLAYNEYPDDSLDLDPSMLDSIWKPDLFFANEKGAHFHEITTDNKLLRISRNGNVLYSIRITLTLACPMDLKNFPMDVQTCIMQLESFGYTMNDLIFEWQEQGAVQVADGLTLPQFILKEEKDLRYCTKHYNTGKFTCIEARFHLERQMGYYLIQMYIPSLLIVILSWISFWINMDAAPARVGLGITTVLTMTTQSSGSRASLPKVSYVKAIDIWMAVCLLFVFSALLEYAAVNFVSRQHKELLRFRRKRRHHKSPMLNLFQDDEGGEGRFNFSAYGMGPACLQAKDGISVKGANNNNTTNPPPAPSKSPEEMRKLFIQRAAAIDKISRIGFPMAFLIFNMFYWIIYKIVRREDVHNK
Test: whole-cell patch clamp, glycine concentration-response
Type: cell-based

`NCC(=O)O` [glycine] showed an EC50 of 54 ± 1 µM.
